Assay results published in PubChem BioAssay (NCI).
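GI50: concentration for 50% inhibition of growth. TGI denotes the concentration required for complete inhibition of growth.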

Legend:
Test in all cases: NCI-60 cell line screen, 384-well format
HCT-116 colon = tested on: HCT-116 colon
786-0 renal = tested on: 786-0 renal
MCF7 breast = tested on: MCF7 breast
MDA-MB-435 melanoma = tested on: MDA-MB-435 melanoma
OVCAR-5 ovarian = tested on: OVCAR-5 ovarian
A498 renal = tested on: A498 renal
CCRF-CEM leukemia = tested on: CCRF-CEM leukemia
HCT-15 colon = tested on: HCT-15 colon
NCI-H522 lung = tested on: NCI-H522 lung
DU-145 prostate = tested on: DU-145 prostate
SR leukemia = tested on: SR leukemia
SF-295 CNS = tested on: SF-295 CNS
ACHN renal = tested on: ACHN renal
SK-OV-3 ovarian = tested on: SK-OV-3 ovarian
UO-31 renal = tested on: UO-31 renal
NCI-H23 lung = tested on: NCI-H23 lung
SNB-19 CNS = tested on: SNB-19 CNS
SK-MEL-28 melanoma = tested on: SK-MEL-28 melanoma
A549 NSCLC = tested on: A549 NSCLC
HCC-2998 colon = tested on: HCC-2998 colon
U251 glioblastoma = tested on: U251 glioblastoma
TK-10 renal = tested on: TK-10 renal
NCI-H460 NSCLC = tested on: NCI-H460 NSCLC
KM12 colon = tested on: KM12 colon
HOP-92 NSCLC = tested on: HOP-92 NSCLC
IGROV1 ovarian = tested on: IGROV1 ovarian
NCI-H226 lung = tested on: NCI-H226 lung
MDA-MB-231 breast = tested on: MDA-MB-231 breast
NCI/ADR-RES ovarian = tested on: NCI/ADR-RES ovarian
LOX IMVI melanoma = tested on: LOX IMVI melanoma
BT-549 breast = tested on: BT-549 breast
PC-3 prostate = tested on: PC-3 prostate
HL-60(TB) leukemia = tested on: HL-60(TB) leukemia
NCI-H322M lung = tested on: NCI-H322M lung
UACC-257 melanoma = tested on: UACC-257 melanoma
MDA-MB-468 breast = tested on: MDA-MB-468 breast
MOLT-4 leukemia = tested on: MOLT-4 leukemia
MALME-3M melanoma = tested on: MALME-3M melanoma
COLO 205 colon = tested on: COLO 205 colon
RPMI-8226 leukemia = tested on: RPMI-8226 leukemia
HOP-62 NSCLC = tested on: HOP-62 NSCLC
OVCAR-8 ovarian = tested on: OVCAR-8 ovarian
SK-MEL-2 melanoma = tested on: SK-MEL-2 melanoma
OVCAR-4 ovarian = tested on: OVCAR-4 ovarian
K-562 leukemia = tested on: K-562 leukemia
T-47D breast = tested on: T-47D breast
UACC-62 melanoma = tested on: UACC-62 melanoma
SF-539 CNS = tested on: SF-539 CNS
SW-620 colon = tested on: SW-620 colon
SK-MEL-5 melanoma = tested on: SK-MEL-5 melanoma
HT29 colon = tested on: HT29 colon
RXF 393 renal = tested on: RXF 393 renal
SN12C renal = tested on: SN12C renal
OVCAR-3 ovarian = tested on: OVCAR-3 ovarian

## Cc1sc2c(c1C)C(c1ccc(Cl)cc1)=N[C@@H](CC(=O)Nc1ccc(OCCOCCOCCOCCNc3cccc4c3C(=O)N(C3CCC(=O)NC3=O)C4=O)cc1)c1nnc(C)n1-2 (stereo partly drawn)
HCT-116 colon
  GI50: 56.8 nM
  TGI: 13600 nM
786-0 renal
  GI50: 44.4 nM
  TGI: 810 nM
MCF7 breast
  GI50: < 10 nM
  TGI: 40.3 nM
MDA-MB-435 melanoma
  GI50: 31.6 nM
  TGI: 166 nM
OVCAR-5 ovarian
  GI50: 42.8 nM
  TGI: 1470 nM
A498 renal
  GI50: 166 nM
  TGI: > 100000 nM
CCRF-CEM leukemia
  GI50: < 10 nM
  TGI: 11.9 nM
HCT-15 colon
  GI50: 121 nM
  TGI: 278 nM
NCI-H522 lung
  GI50: 37.1 nM
  TGI: 182 nM
DU-145 prostate
  GI50: 624 nM
  TGI: 16100 nM
SR leukemia
  GI50: 19.4 nM
  TGI: 69 nM
SF-295 CNS
  GI50: 131 nM
  TGI: 550 nM
ACHN renal
  GI50: 534 nM
  TGI: > 100000 nM
SK-OV-3 ovarian
  GI50: 76.5 nM
  TGI: 228 nM
UO-31 renal
  GI50: 305 nM
  TGI: > 100000 nM
NCI-H23 lung
  GI50: 182 nM
  TGI: 443 nM
SNB-19 CNS
  GI50: 51.6 nM
  TGI: > 100000 nM
SK-MEL-28 melanoma
  GI50: 130 nM
  TGI: 799 nM
A549 NSCLC
  GI50: 36.1 nM
  TGI: > 100000 nM
HCC-2998 colon
  GI50: < 10 nM
  TGI: 21.7 nM
U251 glioblastoma
  GI50: 186 nM
  TGI: 80100 nM
TK-10 renal
  GI50: 190 nM
  TGI: > 100000 nM
NCI-H460 NSCLC
  GI50: 380 nM
  TGI: > 100000 nM
KM12 colon
  GI50: 37.4 nM
  TGI: > 100000 nM
HOP-92 NSCLC
  GI50: 25.3 nM
  TGI: 291 nM
IGROV1 ovarian
  GI50: 26.5 nM
  TGI: 123 nM
NCI-H226 lung
  GI50: 31.5 nM
  TGI: 131 nM
MDA-MB-231 breast
  GI50: < 10 nM
  TGI: 24 nM
NCI/ADR-RES ovarian
  GI50: 21800 nM
  TGI: > 100000 nM
LOX IMVI melanoma
  GI50: 68.4 nM
  TGI: 203 nM
BT-549 breast
  GI50: < 10 nM
  TGI: < 10 nM
PC-3 prostate
  GI50: 15.3 nM
  TGI: > 100000 nM
HL-60(TB) leukemia
  GI50: < 10 nM
  TGI: < 10 nM
NCI-H322M lung
  GI50: 16.4 nM
  TGI: 78.9 nM
UACC-257 melanoma
  GI50: 179 nM
  TGI: 28200 nM
MDA-MB-468 breast
  GI50: 15.2 nM
  TGI: 39.9 nM
MOLT-4 leukemia
  GI50: < 10 nM
  TGI: 19.8 nM
MALME-3M melanoma
  GI50: 133 nM
  TGI: 326 nM
COLO 205 colon
  GI50: 10.7 nM
  TGI: 44.6 nM
RPMI-8226 leukemia
  GI50: < 10 nM
  TGI: < 10 nM
HOP-62 NSCLC
  GI50: 22.4 nM
  TGI: 75.5 nM
OVCAR-8 ovarian
  GI50: < 10 nM
  TGI: 18.7 nM
SK-MEL-2 melanoma
  GI50: < 10 nM
  TGI: 25.5 nM
OVCAR-4 ovarian
  GI50: 15.2 nM
  TGI: 34.1 nM
K-562 leukemia
  GI50: 54 nM
  TGI: 87100 nM
T-47D breast
  GI50: < 10 nM
  TGI: < 10 nM
UACC-62 melanoma
  GI50: 34.7 nM
  TGI: 162 nM
SF-539 CNS
  GI50: 90.4 nM
  TGI: 1120 nM
SW-620 colon
  GI50: 33.5 nM
  TGI: > 100000 nM
SK-MEL-5 melanoma
  GI50: 30 nM
  TGI: 118 nM
HT29 colon
  GI50: 106 nM
  TGI: 434 nM
RXF 393 renal
  GI50: 34.9 nM
  TGI: 96.2 nM
SN12C renal
  GI50: 37.6 nM
  TGI: > 100000 nM
OVCAR-3 ovarian
  GI50: 69.1 nM
  TGI: 431 nM
